Assay results as given in patent publication US12723128B2, “Aromatic diol compounds, diepoxide compounds, polymers prepared from such compounds, and methods for making the same” (SWIMC LLC, priority 2020, dated 2026).

Assay: Stability by differential scanning calorimetry (DSC)
Assay type: physicochemical
Settings: FIG. 7
Description: In Example 9, the stability of the diglycidyl ether of Example 4B (cyclohexanone 2,6 methylene bis (2-furan, 5-methanol glycidyl ether)) was tested using differential scanning calorimetry (“DSC”).

O=C1/C(=C/c2ccc(COCC3CO3)o2)CCC/C1=C\c1ccc(COCC2CO2)o1 (stereo not shown) [Example 4B, cyclohexanone 2,6 methylene bis (2-furan, 5-methanol glycidyl ether)]
Stability (stable up to): up to 180 °C
